Measured values published in patent US20260144769A1, “4-PHENYLBUTYRATE RESTORED GABA UPTAKE AND REDUCED SEIZURES IN SLC6A1 VARIANT-MEDIATED DISORDERS” (Vanderbilt University, priority 2022, published 2026).

Tests used:
Assay in all cases: 3H GABA uptake, corrected iPSC astrocytes transfected with GAT-1^YFP cDNA
Format in all cases: cell-based
GAT-1(W495X) = biological target: T1, GAT-1(W495X) (Rattus norvegicus, UniProt P23978); conditions: 2 mM PBA, 24 hrs
T1 construct: The coding region of rGAT-1 was inserted into pEYFP-C1 (Clontech, Palo Alto, CA); expressed in transfected cells; host or cells: human astrocytes differentiated from CRISPR-corrected patient iPSCs
Procedure: (§1) Live images of human neural progenitor cells (NPCs), astrocytes and GABAergic inhibitory neurons differentiated from the human induced pluripotent stem cells (iPSCs) on the day of experiment. […] The DMSO treated corrected or patient cells was taken as 1. […] GABA flux was measured after 30 min transport at room temperature. The influx of GABA, expressed in pmol/μg protein/min, was averaged from duplicates for each condition and for each transfection. The average counting was DMSO treated condition taken as 1. In FIG. 5B, FIG. 5D and FIG. 5F, 966 stands for CI-966 (50 μM) and 711 stands for NNC-711 (35 μM) that was applied 30 min to the astrocytes transfected with the wildtype GAT-1^YFP before preincubation and removed during preincubation. In FIGS. 5B and D, ***p<0.001 vs. corrected DMSO treated. § § <0.01, § § § p<0.001 vs. patient DMSO treated. […] In FIGS. 5B-E, n=4-8 batches of cells. In FIG. 5F, n=4-5 different transfections). Unpaired t test was used for FIG. 5C and FIG. 5E. One-way analysis of variance followed by a Dunnett post hoc multiple comparison test was used in FIG. 5B, FIG. 5D and FIG. 5F. Values were expressed as mean±S.E.M.).
(§2) The plasmid cDNA encoding enhanced yellow fluorescent protein (EYFP)-tagged rat GAT-1 has been previously described. The coding region of rGAT-1 was inserted into pEYFP-C1 (Clontech, Palo Alto, CA). QuikChange Site-directed Mutagenesis kit was utilized to introduce the GAT-1 variants into a wildtype GAT-1 plasmid. The product was then amplified via polymerase chain reaction, transformed using DH5a competent cells, and plated. A clone was chosen and grown overnight. All the GAT-1 variants were confirmed by DNA sequencing. Both the wildtype and the variant cDNAs were prepared with Qiagen Maxiprep kit.
(§3) Astrocytes were differentiated starting from day 5 of NPC passage 1 with the astrocyte culture medium from Sciencell (catalog 1801) following the protocol as previously described. The cell culture medium was refreshed every other day and the cells were passaged at ˜70% confluency. About 1.5×10^5 cells were seeded in each 35 mm dish or each well in 6-well plate when passaging. The differentiation was continuous until the day 30 and all the astrocytes used in experiments in this study were at day 30 after differentiation.
(§4) Briefly, cells were cultured in […] dishes for 3 days before the GABA uptake experiment in DMEM with 10% fetal bovine serum and 1% penicillin/streptomycin. The cells were then transfected with equal amounts of the wildtype or the mutant GAT-1 cDNAs (1 μg) for each condition at 24 hrs or 48 hrs after plating. GABA uptake assay was carried out 48 hrs after transfection. The cells were incubated with preincubation solution for 15 min and then incubated with preincubation solution containing 1 μci/mL 3H GABA and 10 μM unlabeled GABA for 30 min at room temperature. After washing, the cells were lysed with 0.25 N NaOH for 1 hr. Glacial acetic acid was added, and lysates were then determined on a liquid scintillator with QuantaSmart. The flux of GABA (pmol/μg/min) was averaged with at least triplets for each condition at each transfection. The average counting was taken as n=1. The untransfected condition was taken as a baseline that was subtracted from both the wildtype and the mutant conditions. The pmol/μg/min in the mutant was then normalized to the wildtype from each experiment, which was arbitrarily taken as 100%. The protocols for GABA reuptake assay in cultured mouse astrocytes, neuron or iPSC derived cells were modified from the GABA uptake protocol on HEK 293T cells. GAT-1 inhibitors CL-966 and NNC-711 were applied each time to make sure the radioactive counts were specific.
(§5) The working solution was stored at 4° C.
(§6) Wildtype or the mutant GAT-1^YFP were transfected (1 μg cDNAs per 35 mm^2 dishes) in the astrocytes derived from the corrected iPSCs for 48 hrs. […]

GAT-1 G362R = biological target: T2, GAT-1 G362R (Rattus norvegicus, UniProt P23978, G362R); conditions: 2 mM PBA, 24 hrs
T2 construct: The coding region of rGAT-1 was inserted into pEYFP-C1 (Clontech, Palo Alto, CA); expressed in transfected cells; host or cells: human astrocytes differentiated from CRISPR-corrected patient iPSCs
Procedure: as §1, §2, §3, §4, §5, §6

GAT-1 D410E = biological target: T3, GAT-1 D410E (Rattus norvegicus, UniProt P23978, D410E); conditions: 2 mM PBA, 24 hrs
T3 construct: The coding region of rGAT-1 was inserted into pEYFP-C1 (Clontech, Palo Alto, CA); expressed in transfected cells; host or cells: HEK293T cells (A7); astrocytes from corrected human iPSCs (A27)
Procedure: as §1, §2, §3, §4, §5, §6

wildtype GAT-1 = biological target: T4, wildtype GAT-1 (Rattus norvegicus, UniProt P23978); conditions: corrected astrocytes transfected with wt; 2 mM PBA, 24 hrs
T4 construct: The coding region of rGAT-1 was inserted into pEYFP-C1 (Clontech, Palo Alto, CA); expressed in transfected cells; host or cells: HEK293T cells (A1); astrocytes from corrected human iPSCs (A21)
Procedure: as §1, §2, §3, §4, §5, §6

GAT-1 A288V = biological target: T5, GAT-1 A288V (Rattus norvegicus, UniProt P23978, A288V); conditions: 2 mM PBA, 24 hrs
T5 construct: The coding region of rGAT-1 was inserted into pEYFP-C1 (Clontech, Palo Alto, CA); expressed in transfected cells; host or cells: HEK293T cells (A4); astrocytes from corrected human iPSCs (A24)
Procedure: as §1, §2, §3, §4, §5, §6

GAT-1 V125M = biological target: T6, GAT-1 V125M (Rattus norvegicus, UniProt P23978, V125M); conditions: 2 mM PBA, 24 hrs
T6 construct: The coding region of rGAT-1 was inserted into pEYFP-C1 (Clontech, Palo Alto, CA); expressed in transfected cells; host or cells: HEK293T cells (A3); astrocytes from corrected human iPSCs (A23)
Procedure: as §1, §2, §3, §4, §5, §6

**Q.** How did the “GABA uptake normalized to its DMSO treated” value (from here on “GABA uptake normalized”) (GAT-1(W495X)) turn out when O=C(O)CCCc1ccccc1 [PBA, 4-phenylbutyric acid] was run?
**A.** Its value is 1.45±0.04.

**Q.** What about the “GABA uptake normalized” value (GAT-1 G362R) of the same molecule?
**A.** Its value is 1.25±0.023.

**Q.** What about the “GABA uptake normalized” value (GAT-1 D410E) of the same molecule?
**A.** Its value is 1.21±0.022.

**Q.** And the “GABA uptake normalized” value (wildtype GAT-1)?
**A.** The value was 1.188±0.075.

**Q.** And the “GABA uptake normalized” value (GAT-1 A288V)?
**A.** The value was 1.204±0.031.

**Q.** What about the “GABA uptake normalized” value (GAT-1 V125M) of the same molecule?
**A.** The value was 1.285±0.018.
